Consider 14 molecules from patent US10611740B2, “Aryl dihydro-2H-benzo[b][1,4]oxazine sulfonamide and related compounds for use as agonists of RORγ and the treatment of disease” (Lycera Corporation, priority 2015, dated 2020).

Test [1] addresses T1, Gal4-RORγ-LBD (Homo sapiens, UniProt P51449).
T1 construct: expressed in transfected cells; host or cells: HEK-293 cells (pcDNA3.1neo plasmid)
T1 sequence (P51449 269-508 limits assumed): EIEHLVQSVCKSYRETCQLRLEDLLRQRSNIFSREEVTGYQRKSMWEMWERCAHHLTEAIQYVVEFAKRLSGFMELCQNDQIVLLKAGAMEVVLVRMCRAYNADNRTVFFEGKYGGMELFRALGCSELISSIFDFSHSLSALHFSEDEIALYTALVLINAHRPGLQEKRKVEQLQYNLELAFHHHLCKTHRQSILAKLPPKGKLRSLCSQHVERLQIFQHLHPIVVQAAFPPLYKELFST
Description: Gal4-RORγ Luciferase Reporter Assay in HEK-293T Cells. The class given is cell-based. The following applies: HEK-293 cells. In short, it runs like this:
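In transfected HEK-293 cells (Gal4-RORγ-LBD, Gal4-luciferase), test agents with 2 μM ursolic acid were incubated overnight at 37 °C before luminescent detection. Values are relative to the ursolic-acid-free, compound-free signal (100).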

Test [2] has as its target T2, RORγ-LBD (Homo sapiens, UniProt P51449).
T2 construct: made in house; host or cells: SF9 cells (baculovirus)
T2 sequence (P51449 269-508 limits assumed): T1 sequence (P51449 269-508 limits assumed)
Description: RORγ-Ligand Binding Domain (LBD) TR-FRET Assay.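 For TR-FRET Assay Max Response: 665/615 nm ratio relative to signal without ursolic acid or compound set at 100.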 The class given is biochemical. The method, boiled down:
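Lysate from SF9 cells expressing His-RORγ-LBD is diluted to about 3 nM final in 50 mM Tris pH 7.0 assay buffer. A biotin-tagged SRC1 LXXLL peptide goes in at 200 nM final, plus ursolic acid at 2 μM final. Test compounds carry 1% DMSO final; signal read by TR-FRET.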

Where [3] appears, read: luciferase reporter, with 2 μM ursolic acid.

For the molecule `COc1cc(S(=O)(=O)N2C[C@H](CNS(=O)(=O)N3CC[C@H](O)C3)Oc3ccc(-c4cc(F)ccc4F)cc32)ccc1F` [Compound 45E, (S)-N-(((S)-6-(2,5-difluoro-phenyl)-4-((4-fluoro-3-methoxyphenyl)sulfonyl)-3,4-dihydro-2H-benzo[b][1,4]oxazin-2-yl)methyl)-3-hydroxy-pyrrolidine-1-sulfonamide], in test [1] (2 μM ursolic acid), the EC50 is less than 0.5 µM and the “Gal4-RORγ Assay Max Response” value is reported as “** (The symbol “**” indicates a value in the range of greater than 90 to 150)”. Further, in test [2], the concentration for a half-maximal effect (EC50) was less than 0.5 µM and the “TR-FRET Assay Max Response” value is listed as “*** (The symbol “***” indicates a value in the range of greater than 150 to 200)”.
Turning to `CC(=O)N[C@H]1C[C@](C[C@H]2CN(S(=O)(=O)c3cccc(C(F)(F)F)c3)c3cc(-c4cc(F)ccc4F)ccc3O2)(C(=O)O)C1` [Compound 89B, (1r,3S)-3-acetamido-1-(((S)-6-(2,5-difluorophenyl)-4-((3-(trifluoro-methyl)phenyl)sulfonyl)-3,4-dihydro-2H-benzo[b][1,4]oxazin-2-yl)methyl)cyclobutane-1-carboxylic acid], in test [1] (2 μM ursolic acid), the EC50 lay within 0.5 to 5 µM and the “Gal4-RORγ Assay Max Response” value was “** (The symbol “**” indicates a value in the range of greater than 90 to 150)”. Besides, in test [2], the EC50 was less than 0.5 µM and the “TR-FRET Assay Max Response” value was “** (The symbol “**” indicates a value in the range of greater than 90 to 150)”.
Regarding `N#CCC(=O)NC[C@H]1CN(S(=O)(=O)c2cccc(C(F)(F)F)c2)c2cc(-c3cccc(C(F)(F)F)n3)ccc2O1` [Compound 30BH, (S)-2-cyano-N-((4-((3-(trifluoromethyl)phenyl)-sulfonyl)-6-(6-(trifluoro-methyl)pyridin-2-yl)-3,4-dihydro-2H-benzo[b][1,4]-oxazin-2-yl)methyl)acetamide], in test [1] (setting [3]), the concentration giving a half-maximal response (EC50) was in the range of 0.5 to 5 µM and the “Gal4-RORγ Assay Max Response” value is “** (The symbol “**” indicates a value in the range of greater than 90 to 150)”. Also, in test [2], the 50% effective concentration (EC50) was less than 0.5 µM and the “TR-FRET Assay Max Response” value was “*** (The symbol “***” indicates a value in the range of greater than 150 to 200)”.
Taken in the same sequence, the figures for `O=C(O)CC[C@H]1CN(S(=O)(=O)c2cccc(C(F)(F)F)c2)c2cc(-c3ccccc3O)ccc2O1` [Compound 2AW, (S)-3-(6-(2-hydroxyphenyl)-4-((3-(trifluoromethyl)phenyl)-sulfonyl)-3,4-dihydro-2H-benzo[b][1,4]oxazin-2-yl)propanoic acid] were 0.5 to 5 µM, “** (The symbol “**” indicates a value in the range of greater than 90 to 150)”, less than 0.5 µM and “**** (The symbol “****” indicates a value greater than 200)”.
The corresponding values for `C[C@H](C[C@H]1CN(S(=O)(=O)c2cccc(C(F)(F)F)c2)c2cc(-c3cc(F)cc(F)c3Cl)ccc2O1)C(=O)O` [Compound 46B, (R)-3-((S)-6-(2-chloro-3,5-difluorophenyl)-4-((3-(trifluoro-methyl)phenyl)sulfonyl)-3,4-dihydro-2H-benzo[b][1,4]oxazin-2-yl)-2-methylpropanoic acid] are less than 0.5 µM, “** (The symbol “**” indicates a value in the range of greater than 90 to 150)”, less than 0.5 µM and “*** (The symbol “***” indicates a value in the range of greater than 150 to 200)”.
The corresponding values for `O=S(=O)(c1cccc(C(F)(F)F)c1)N1C[C@H]([C@H](O)CO)Oc2ccc(-c3cc(F)ccc3F)cc21` [Compound 41, (R)-1-((R)-6-(2,5-difluorophenyl)-4-((3-(trifluoromethyl)phenyl)sulfonyl)-3,4-dihydro-2H-benzo[b][1,4]oxazin-2-yl)ethane-1,2-diol] are less than 0.5 µM, “* (The symbol “*” indicates a value in the range of 25 to 90)”, less than 0.5 µM and “**** (The symbol “****” indicates a value greater than 200)”.
For the molecule `O=C(NC[C@H]1CN(S(=O)(=O)c2cccc(C(F)(F)F)c2)c2cc(-c3cc(F)ccc3F)ccc2O1)C1CCC1` [Compound 30BB, (S)-N-((6-(2,5-difluorophenyl)-4-((3-(trifluoromethyl)phenyl)-sulfonyl)-3,4-dihydro-2H-benzo-[b][1,4]oxazin-2-yl)methyl)-cyclobutanecarboxamide], in test [1] (setting [3]), the EC50 is less than 0.5 µM and the “Gal4-RORγ Assay Max Response” value was “* (The symbol “*” indicates a value in the range of 25 to 90)”. In test [2], the EC50 was less than 0.5 µM and the “TR-FRET Assay Max Response” value was “*** (The symbol “***” indicates a value in the range of greater than 150 to 200)”.
As to `CC(C)(C)C(=O)NC[C@H]1CN(S(=O)(=O)c2cccc(C(F)(F)F)c2)c2cc(-c3cc(F)ccc3F)ccc2O1` [Compound 30AO, (S)-N-((6-(2,5-difluorophenyl)-4-((3-(trifluoromethyl)phenyl)-sulfonyl)-3,4-dihydro-2H-benzo[b][1,4]oxazin-2-yl)methyl)pivalamide], in test [1] (setting [3]), the EC50 is less than 0.5 µM and the “Gal4-RORγ Assay Max Response” value is recorded as “* (The symbol “*” indicates a value in the range of 25 to 90)”. Besides, in test [2], the concentration giving a half-maximal response (EC50) is less than 0.5 µM and the “TR-FRET Assay Max Response” value is “**** (The symbol “****” indicates a value greater than 200)”.
On to `CC(C)(C[C@H]1CN(S(=O)(=O)c2cccc(C(F)(F)F)c2)c2cc(-c3cccc(C(F)F)n3)ccc2O1)C(=O)O` [Compound 32AK, (S)-3-(6-(6-(difluoromethyl)-pyridin-2-yl)-4-((3-(trifluoro-methyl)phenyl)sulfonyl)-3,4-dihydro-2H-benzo[b][1,4]oxazin-2-yl)-2,2-dimethylpropanoic acid], for which, in test [1] (2 μM ursolic acid), the 50% effective concentration (EC50) is less than 0.5 µM and the “Gal4-RORγ Assay Max Response” value is listed as “* (The symbol “*” indicates a value in the range of 25 to 90)”. In addition, in test [2], the EC50 is less than 0.5 µM and the “TR-FRET Assay Max Response” value is given as “** (The symbol “**” indicates a value in the range of greater than 90 to 150)”.
As to `CC(C)(C[C@H]1CN(S(=O)(=O)c2cccc(C(F)(F)F)c2)c2cc(-c3cc(F)ccc3F)ccc2O1)NS(C)(=O)=O` [Compound 30DE, (S)-N-(1-(6-(2,5-difluoro-phenyl)-4-((3-(trifluoromethyl)-phenyl)sulfonyl)-3,4-dihydro-2H-benzo[b][1,4]oxazin-2-yl)-2-methylpropan-2-yl)methane-sulfonamide], in test [1] (2 μM ursolic acid), the EC50 is less than 0.5 µM and the “Gal4-RORγ Assay Max Response” value is “* (The symbol “*” indicates a value in the range of 25 to 90)”. Besides, in test [2], the half-maximal effective concentration (EC50) is less than 0.5 µM and the “TR-FRET Assay Max Response” value is “*** (The symbol “***” indicates a value in the range of greater than 150 to 200)”.
In the case of `O=C(O)CC[C@H]1CN(S(=O)(=O)c2cccc(C(F)(F)F)c2)c2cc(-c3cc(Cl)ccc3F)ccc2O1` [Compound 2C, (S)-3-(6-(5-chloro-2-fluorophenyl)-4-((3-(trifluoromethyl)phenyl)-sulfonyl)-3,4-dihydro-2H-benzo[b][1,4]oxazin-2-yl)propanoic acid], in test [1] (setting [3]), the EC50 was less than 0.5 µM and the “Gal4-RORγ Assay Max Response” value was “** (The symbol “**” indicates a value in the range of greater than 90 to 150)”. For the same molecule, in test [2], the EC50 is less than 0.5 µM and the “TR-FRET Assay Max Response” value is “*** (The symbol “***” indicates a value in the range of greater than 150 to 200)”.
For `Cc1cccc(-c2ccc3c(c2)N(S(=O)(=O)c2cccc(C(F)(F)F)c2)C[C@H](CCC(=O)O)O3)n1` [Compound 4S, (S)-3-(6-(6-methylpyridin-2-yl)-4-((3-(trifluoromethyl)phenyl)-sulfonyl)-3,4-dihydro-2H-benzo[b][1,4]oxazin-2-yl)propanoic acid], in test [1] (setting [3]), the half-maximal effective concentration (EC50) lay within 0.5 to 5 µM and the “Gal4-RORγ Assay Max Response” value was “**** (The symbol “****” indicates a value greater than 200)”. In test [2], the EC50 is less than 0.5 µM and the “TR-FRET Assay Max Response” value was “**** (The symbol “****” indicates a value greater than 200)”.
Consider `O=C(O)C1CCN(C(=O)NC[C@H]2CN(S(=O)(=O)c3cccc(C(F)(F)F)c3)c3cc(-c4cc(F)ccc4F)ccc3O2)CC1` [Compound 23Q, (S)-1-(((6-(2,5-difluorophenyl)-4-((3-(trifluoromethyl)-phenyl)sulfonyl)-3,4-dihydro-2H-benzo[b][1,4]oxazin-2-yl)methyl)carbamoyl)piperidine-4-carboxylic acid], for which, in test [1] (setting [3]), the concentration giving a half-maximal response (EC50) was 0.5 to 5 µM and the “Gal4-RORγ Assay Max Response” value is given as “*** (The symbol “***” indicates a value in the range of greater than 150 to 200)”. For the same molecule, in test [2], the EC50 was less than 0.5 µM and the “TR-FRET Assay Max Response” value is given as “**** (The symbol “****” indicates a value greater than 200)”.
`Cn1cncc1-c1ccc2c(c1)N(S(=O)(=O)c1cccc(C(F)(F)F)c1)C[C@H](CCC(=O)O)O2` [Compound 4K, (S)-3-(6-(1-methyl-1H-imidazol-5-yl)-4-((3-(trifluoromethyl)-phenyl)sulfonyl)-3,4-dihydro-2H-benzo[b][1,4]oxazin-2-yl)propanoic acid]: the half-maximal effective concentration (EC50) in test [1] (setting [3]) was more than 10 µM. Further, in test [2], the EC50 was 0.5 to 5 µM and the “TR-FRET Assay Max Response” value is “**** (The symbol “****” indicates a value greater than 200)”.

By EC50 is commonly meant the concentration that produces a half-maximal response. Lower therefore signals greater potency.
